# Laboratory results taken from patent publication US20260130933A1, “PHARMACEUTICAL COMPOSITION FOR PREVENTION OR TREATMENT OF NEPHROPATHY AND/OR DIABETES MELLITUS, COMPRISING ENAVOGLIFLOZIN” (DAEWOONG PHARMACEUTICAL CO., LTD., priority 2022, published 2026).
# Experiment: Example 2: phase 3 trial, enavogliflozin 0.3 mg vs dapagliflozin 10 mg once a day for 24 weeks added to metformin in patients with type 2 diabetes (same efficacy, exploratory and safety endpoints)
# Assay type: in vivo, human
# Method: Subjects who met the inclusion/exclusion criteria were administered a placebo of the clinical trial drug under single-blind (subject blinding) conditions during a 2-week run-in period while continuing to receive metformin. […] The randomized subjects were administered two tablets of the clinical trial drug for each administration group once a day, and then visited the institution at weeks 6, 12, 18, and 24 during the 24-week administration period to conduct efficacy and safety evaluations.
# • 1. Change in HbA1c at week 24 after administration of clinical trial drug compared to Visit 2 (randomization)
# • 1. Change in HbA1c at each time point of weeks 6, 12, and 18 after administration of clinical trial drug compared to Visit 2 (randomization) • 2. Change in FPG at each time point of weeks 6, 12, 18, and 24 after administration of clinical trial drug compared to Visit 2 (randomization) • 3. Proportion of subjects achieving HbA1c<7% at each time point of weeks 6, 12, 18, and 24 after administration of clinical trial drug • 4. Proportion of subjects achieving HbA1c<6.5% at each time point of weeks 6, 12, 18, and 24 after administration of clinical trial drug • 5. Proportion of subjects achieving therapeutic response (HbA1c change (HbA1c at Visit 2-HbA1c at each evaluation time point)>0.5% or HbA1c<7% at each evaluation time point compared to Visit 2 (randomization)) at each time point of weeks 6, 12, 18 and 24 after administration of clinical trial drug
# • 1. Change in fasting c-peptide at each time point of weeks 6, 12, 18, and 24 after administration of clinical trial drug compared to Visit 2 (randomization) • 2. Change in body weight at each time point of weeks 6, 12, 18, and 24 after administration of clinical trial drug compared to Visit 2 (randomization) • 3. Change in fasting lipid concentration (total cholesterol, LDL-C, HDL-C, and triglycerides) at each time point of weeks 6, 12, 18, and 24 after administration of clinical trial drug compared to Visit 2 (randomization) • 4. Changes in systolic or diastolic blood pressure at each time point of weeks 6, 12, 18, and 24 after administration of clinical trial drug compared to Visit 2 (randomization) • 5. Changes in β-cell function and insulin resistance measured by HOMA-β and HOMA-IR at each time point of weeks 6, 12, 18, and 24 after administration of clinical trial drug compared to Visit 2 (randomization) • 6. Changes in renal function-related indicators (UACR, UGCR) measured by UACR at each time point of weeks 6, 12, 18, and 24 after administration of clinical trial drug compared to Visit 2 (randomization) • 7. Changes in obesity-related indicators (adiponectin, leptin) at each time point of weeks 6, 12, 18, and 24 after administration of clinical trial drug compared to Visit 2 (randomization)
# [1] = Week 12, mPPS1, enavogliflozin minus dapagliflozin
# [2] = Week 12, mPPS2, enavogliflozin minus dapagliflozin
# [3] = Week 18, PPS, enavogliflozin minus dapagliflozin
compound,measurement,setting,value
"OC[C@H]1O[C@@H](c2cc(Cc3ccc(C4CC4)cc3)c(Cl)c3c2CCO3)[C@H](O)[C@@H](O)[C@@H]1O [Enavogliflozin, (2S,3R,4R,5S,6R)-2-(7-chloro-6 (4-cyclopropylbenzyl)-2,3-dihydrobenzofuran-4-yl)-6-(hydroxymethyl)tetrahydro-2H-pyran-3,4,5-triol]","HDL-C, Mean (SD)","Week 12, mPPS1",53.08(10.89) mg/dL
same,"HDL-C, Median","Week 12, mPPS1",52.50 mg/dL
same,"LDL-C change from baseline, ANCOVA LS mean (SE)","Week 12, mPPS1",1.86(1.68) mg/dL
same,"LDL-C change from baseline, Mean (SD)","Week 12, mPPS1",0.78(16.26) mg/dL
same,"LDL-C change from baseline, Median","Week 12, mPPS1",1.00 mg/dL
same,"LDL-C, Mean (SD)","Week 12, mPPS1",87.58(30.26) mg/dL
same,"LDL-C, Median","Week 12, mPPS1",79.00 mg/dL
same,"Triglycerides change from baseline, ANCOVA LS mean (SE)","Week 12, mPPS1",−7.53(4.80) mg/dL
same,"Triglycerides change from baseline, Mean (SD)","Week 12, mPPS1",−5.00(57.85) mg/dL
same,"Triglycerides change from baseline, Median","Week 12, mPPS1",3.00 mg/dL
same,"Triglycerides, Mean (SD)","Week 12, mPPS1",116.23(59.46) mg/dL
same,"Triglycerides, Median","Week 12, mPPS1",100.00 mg/dL
same,"HDL-C change from baseline, LS mean difference",[1],0.06 mg/dL
same,"LDL-C change from baseline, LS mean difference",[1],1.30 mg/dL
same,"triglycerides change from baseline, LS mean difference",[1],2.57 mg/dL
same,"Diastolic blood pressure change from baseline, ANCOVA LS mean (SE)","Week 12, mPPS2",−4.19 mmHg
same,"Diastolic blood pressure change from baseline, Mean (SD)","Week 12, mPPS2",−4.33 mmHg
same,"Diastolic blood pressure change from baseline, Median","Week 12, mPPS2",−4.00 mmHg
same,"Diastolic blood pressure, Mean (SD)","Week 12, mPPS2",72.66 mmHg
same,"Diastolic blood pressure, Median","Week 12, mPPS2",72.00 mmHg
same,"Systolic blood pressure change from baseline, ANCOVA LS mean (SE)","Week 12, mPPS2",−5.86(1.04) mmHg
same,"Systolic blood pressure change from baseline, Mean (SD)","Week 12, mPPS2",−6.42(9.73) mmHg
same,"Systolic blood pressure change from baseline, Median","Week 12, mPPS2",−6.00 mmHg
same,"Systolic blood pressure, Mean (SD)","Week 12, mPPS2",123.29(13.73) mmHg
same,"Systolic blood pressure, Median","Week 12, mPPS2",123.00 mmHg
same,"diastolic blood pressure change from baseline, LS mean difference",[2],0.16 mmHg
same,"systolic blood pressure change from baseline, LS mean difference",[2],0.26 mmHg
same,"Adiponectin change from baseline, ANCOVA LS mean (SE)","Week 18, PPS",1.33 µg/mL
same,"Adiponectin change from baseline, Mean (SD)","Week 18, PPS",1.26 µg/mL
same,"Adiponectin change from baseline, Median","Week 18, PPS",1.14 µg/mL
same,"Adiponectin, Mean (SD)","Week 18, PPS",8.3 µg/mL
same,"Adiponectin, Median","Week 18, PPS",7.33 µg/mL
same,"HOMA-IR change from baseline, ANCOVA LS mean (SE)","Week 18, PPS",−1.79
same,"HOMA-IR change from baseline, Mean (SD)","Week 18, PPS",−1.58
same,"HOMA-IR change from baseline, Median","Week 18, PPS",−0.94
same,"HOMA-IR, Mean (SD)","Week 18, PPS",1.86
same,"HOMA-IR, Median","Week 18, PPS",1.51
same,"HOMA-β change from baseline, ANCOVA LS mean (SE)","Week 18, PPS",10.97
same,"HOMA-β change from baseline, Mean (SD)","Week 18, PPS",10.63
same,"HOMA-β change from baseline, Median","Week 18, PPS",5.75
same,"HOMA-β, Mean (SD)","Week 18, PPS",56.39
same,"HOMA-β, Median","Week 18, PPS",40.45
same,"Leptin change from baseline, ANCOVA LS mean (SE)","Week 18, PPS",-2.49 ng/mL
same,"Leptin change from baseline, Mean (SD)","Week 18, PPS",-2.50 ng/mL
same,"Leptin change from baseline, Median","Week 18, PPS",-1.32 ng/mL
same,"Leptin, Mean (SD)","Week 18, PPS",9.71 ng/mL
same,"Leptin, Median","Week 18, PPS",7.22 ng/mL
same,"UACR change from baseline, ANCOVA LS mean (SE)","Week 18, PPS",-23.05 g/kg
same,"UACR change from baseline, Mean (SD)","Week 18, PPS",-17480 mg/kg
same,"UACR change from baseline, Median","Week 18, PPS",-0.70 g/kg
same,"UACR, Mean (SD)","Week 18, PPS",20320 mg/kg
same,"UACR, Median","Week 18, PPS",9.80 g/kg
same,"UGCR change from baseline, ANCOVA LS mean (SE)","Week 18, PPS",60.97 mg/mg
same,"UGCR change from baseline, Mean (SD)","Week 18, PPS",59.41 mg/mg
same,"UGCR change from baseline, Median","Week 18, PPS",57.54 mg/mg
same,"UGCR, Mean (SD)","Week 18, PPS",60.98 mg/mg
same,"UGCR, Median","Week 18, PPS",58.42 mg/mg
same,"HOMA-IR change from baseline, LS mean difference",[3],−0.32
same,"HOMA-β change from baseline, LS mean difference",[3],−2.53
same,"UACR change from baseline, LS mean difference",[3],-10.10 g/kg
same,"UGCR change from baseline, LS mean difference",[3],18.25 mg/mg
same,"leptin change from baseline, LS mean difference",[3],-1.26 ng/mL
same,"HDL-C change from baseline, ANCOVA LS mean (SE)","Week 18, mPPS1",2.46(0.66) mg/dL
same,"HDL-C change from baseline, Mean (SD)","Week 18, mPPS1",1.89(6.20) mg/dL
same,"HDL-C change from baseline, Median","Week 18, mPPS1",2.50 mg/dL
same,"HDL-C, Mean (SD)","Week 18, mPPS1",53.49(11.50) mg/dL
same,"HDL-C, Median","Week 18, mPPS1",52.50 mg/dL
same,"LDL-C change from baseline, ANCOVA LS mean (SE)","Week 18, mPPS1",1.42(1.86) mg/dL
same,"LDL-C change from baseline, Mean (SD)","Week 18, mPPS1",0.50(14.20) mg/dL
same,"LDL-C change from baseline, Median","Week 18, mPPS1",-1.00 mg/dL
